Reference: patent publication US20210032257A1, “(E)-1-(4-(DIMETHYLAMINO)BUT-2-ENOYL)PYRROLIDIN-3-YL 4-((3-ISOPROPYL-5-METHYLPYRAZOLO[1,5-A]PYRIMIDIN-7-YL)AMINO)PIPERIDINE-1-CARBOXYLATE FOR INHIBITING CDK7” (Eli Lilly and Company, priority 2017, published 2021)

Legend:
Assay type in all cases: biochemical
CDK1/CycB1 = molecular target: T1, CDK1/CycB1 (Homo sapiens, UniProt P06493); test: ProQinase WT Profiler radiometric protein kinase assay; conditions: non standard IC50 from 4 concentrations, kinase 7 nM, ATP 1 μM
T1 construct: purchased ProQinase
Method: (§1) Kinase inhibition profile of compound is determined by measuring residual activity values at four concentrations in singlicate in 320 wild-type protein kinase assays. The compounds are tested at 20 μM, 2 μM, 0.2 μM and 0.02 μM in singlicate. The final DMSO concentration in all reaction cocktails (including high and low controls) is 1%.
(§2) A radiometric protein kinase assay (33PANQINASE® Activity Assay, ProQinase) is used for measuring the kinase activity of the 320 protein kinases. All kinase assays are performed in 96-well FLASHPLATES™ in a 50 μL reaction volume. The reaction cocktail is pipetted in 4 steps in the following order:
(§3) All PKC assays (except the PKC-mu and the PKC-nu assay) additionally contain 1 mM CaCl2). 4 mM EDTA, 5 μg/mL Phosphatidylserine and 1 μg/mL 1,2-Dioleyl-glycerol. The CAMK1D, CAMK2A, CAMK2B, CAMK2D, CAMK2G, CAMK4, CAMKK1, CAMKK2, DAPK2, EEF2K, MYLK, MYLK2 and MYLK3 assays additionally contain 1 μg/mL Calmodulin and 0.5 mM CaCl2). The PRKG1 and PRKG2 assays additionally contain 1 μM cGMP. The DNA-PK assay additionally contained 2.5 μg/mL DNA.
(§4) The protein kinase reaction cocktails are incubated at 30° C. for 60 minutes. The reaction is stopped with 50 μL of 2% (v/v) H3PO4, plates are aspirated and washed two times with 200 μL 0.9% (w/v) NaCl. […] All protein kinase assays are performed with a BeckmanCoulter BIOMEK® 2000/SL robotic system. All protein kinases provided by ProQinase are expressed in Sf9 insect cells or in E. coli as recombinant GST-fusion proteins or His-tagged proteins, either as full-length or enzymatically active fragments. All kinases are produced from human cDNAs and purified by either GSH-affinity chromatography or immobilized metal. Affinity tags are removed from a number of kinases during purification. The purity of the protein kinases is examined by SDS-PAGE/Coomassie staining, the identity is checked by mass spectroscopy. Kinases from external vendors (CAR=Carna Biosciences Inc.; INV=Life Technologies (Invitrogen Corporation™); MIL=Merck-Millipore (Millipore Corporation™), see Table 1) are expressed, purified and quality-controlled by virtue of the vendors readings.
(§5) For each kinase, the median value of the cpm of three wells is defined as “low control” (n=3). This value reflects unspecific binding of radioactivity to the plate in the absence of a protein kinase but in the presence of the substrate. […] The difference between high and low control of each enzyme is taken as 100% activity. As part of the data evaluation, the low control of each kinase is subtracted from the high control value as well as from their corresponding “compound values”. The residual activity (in %) for each compound well is calculated by using the following formula: Res. Activity (%)=100×[(signal of compound−low control)/(high control−low control)]. Non Standard IC50s are calculated using a customized excel spreadsheet in conjunction with XLFit Add-in. Due to the low number of data points, (4) XL-Fit calculates a non standard IC50 using a four parametric equation where three parameters are locked to fixed values.
(§6) A: Minimum value of activity, Also known as Bottom. Fixed to 0 B: Maximum value of activity, Also known as Top. Fixed to 100 C: Inflexion point of the curve D: Hill Slope. Fixed to 1 Y: The dependent variable (i.e. what you measure as the signal) X: The independent variable (i.e. what you control, such as, dose, concentration, etc.)
(§7) The way to calculate the Non Standard IC50 is to assign random values to C parameter and repeat it iteratively. The algorithm then measures the differences in the sum of the residuals squared and will look for successive consecutive iterations where the change in the residuals is converging.

CDK16/CycY = molecular target: T2, CDK16/CycY (Homo sapiens, UniProt Q00536); test: as above; conditions: non standard IC50 from 4 concentrations, kinase 3.2 nM, ATP 0.3 μM
T2 construct: purchased ProQinase
Method: as §1, §2, §3, §4, §5, §6, §7

CDK19/CycC = molecular target: T3, CDK19/CycC (Homo sapiens, UniProt Q9BWU1); test: as above; conditions: non standard IC50 from 4 concentrations, kinase 30.9 nM, ATP 3 μM
T3 construct: purchased ProQinase
Method: as §1, §2, §3, §4, §5, §6, §7

CDK2/CycE1 = molecular target: T4, CDK2/CycE1 (Homo sapiens, UniProt P24941); test: as above; conditions: non standard IC50 from 4 concentrations, kinase 1.5 nM, ATP 1 μM
T4 construct: purchased ProQinase
Method: as §1, §2, §3, §4, §5, §6, §7

CDK4/CycD1 = molecular target: T5, CDK4/CycD1 (Homo sapiens, UniProt P11802); test: as above; conditions: non standard IC50 from 4 concentrations, kinase 3.3 nM, ATP 3 μM
T5 construct: purchased ProQinase
Method: as §1, §2, §3, §4, §5, §6, §7

CDK6/CycD1 = molecular target: T6, CDK6/CycD1 (Homo sapiens, UniProt Q00534); test: as above; conditions: non standard IC50 from 4 concentrations, kinase 3.2 nM, ATP 3 μM
T6 construct: purchased ProQinase
Method: as §1, §2, §3, §4, §5, §6, §7

CDK7/CycH/MAT1 = molecular target: T7, CDK7/CycH/MAT1 (Homo sapiens, UniProt P50613); test: as above; conditions: non standard IC50 from 4 concentrations, kinase 3.3 nM, ATP 3 μM
T7 construct: purchased ProQinase
Method: as §1, §2, §3, §4, §5, §6, §7

CDK8/CycC = molecular target: T8, CDK8/CycC (Homo sapiens, UniProt P49336); test: as above; conditions: non standard IC50 from 4 concentrations, kinase 8.3 nM, ATP 1 μM
T8 construct: purchased ProQinase
Method: as §1, §2, §3, §4, §5, §6, §7

CDK9/CycT1 = molecular target: T9, CDK9/CycT1 (Homo sapiens, UniProt P50750); test: as above; conditions: non standard IC50 from 4 concentrations, kinase 2.2 nM, ATP 1 μM
T9 construct: purchased ProQinase
Method: as §1, §2, §3, §4, §5, §6, §7

CDK12/CycK = molecular target: T10, CDK12/CycK (Homo sapiens, UniProt Q9NYV4); test: ProQinase radiometric protein kinase assay, 10 concentrations; conditions: kinase 14.7 nM, ATP 0.3 μM
T10 construct: purchased ProQinase
Method: as §2, §3
(§8) The protein kinase reaction cocktails are incubated at 30° C. for 60 minutes. […] Kinases from external vendors (CAR=Carna Biosciences Inc.; INV=Life Technologies (Invitrogen Corporation™); MIL=Merck-Millipore (Millipore Corporation™), see Table 1) are expressed, purified and quality-controlled by virtue of the vendors readings.
(§9) CDK12 and CDK13 (ProQinase) are tested essentially as above but separately at 10 concentrations ([…] to […]) using semi-logarithmic dilutions. For the 10 points, the analysis the residual activities for each concentration and the compound IC50 values are calculated using QUATTRO® WORKFLOW™ V3.1.1. […]

CDK13/CycK = molecular target: T11, CDK13/CycK (Homo sapiens, UniProt Q14004); test: as above; conditions: kinase 29.2 nM, ATP 0.3 μM
T11 construct: purchased ProQinase
Method: as §2, §3, §8, §9

T5 sequence (P11802 whole entry): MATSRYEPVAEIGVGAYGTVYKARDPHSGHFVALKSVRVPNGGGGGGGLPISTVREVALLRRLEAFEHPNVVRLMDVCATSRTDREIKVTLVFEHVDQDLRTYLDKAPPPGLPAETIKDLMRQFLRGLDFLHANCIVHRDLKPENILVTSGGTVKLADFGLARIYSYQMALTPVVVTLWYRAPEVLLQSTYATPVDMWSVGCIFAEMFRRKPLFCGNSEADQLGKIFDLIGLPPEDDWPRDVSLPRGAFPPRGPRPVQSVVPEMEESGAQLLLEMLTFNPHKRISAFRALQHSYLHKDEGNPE
T5 sequence (P24385 whole entry partner): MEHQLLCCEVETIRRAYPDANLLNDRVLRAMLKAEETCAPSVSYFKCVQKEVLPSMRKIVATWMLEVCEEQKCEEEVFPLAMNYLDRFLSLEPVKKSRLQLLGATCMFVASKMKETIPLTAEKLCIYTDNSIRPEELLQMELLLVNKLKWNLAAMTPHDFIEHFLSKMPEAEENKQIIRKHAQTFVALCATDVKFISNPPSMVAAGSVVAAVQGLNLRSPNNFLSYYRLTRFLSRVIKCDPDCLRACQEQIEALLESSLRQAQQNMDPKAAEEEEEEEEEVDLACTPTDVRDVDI
T3 sequence (Q9BWU1 whole entry): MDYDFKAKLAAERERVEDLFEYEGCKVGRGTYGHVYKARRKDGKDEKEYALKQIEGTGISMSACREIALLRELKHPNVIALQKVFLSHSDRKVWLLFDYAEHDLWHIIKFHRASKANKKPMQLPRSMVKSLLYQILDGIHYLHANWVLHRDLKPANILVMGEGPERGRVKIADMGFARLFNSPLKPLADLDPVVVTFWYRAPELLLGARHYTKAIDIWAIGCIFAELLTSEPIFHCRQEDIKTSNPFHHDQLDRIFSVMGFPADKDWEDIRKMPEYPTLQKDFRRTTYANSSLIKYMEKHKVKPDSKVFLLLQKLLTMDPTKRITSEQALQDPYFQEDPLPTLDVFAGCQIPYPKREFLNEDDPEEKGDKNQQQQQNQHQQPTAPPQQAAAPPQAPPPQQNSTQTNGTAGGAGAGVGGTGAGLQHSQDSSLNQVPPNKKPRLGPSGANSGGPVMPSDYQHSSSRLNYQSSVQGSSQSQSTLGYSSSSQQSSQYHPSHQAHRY
T3 sequence (P24863 whole entry partner): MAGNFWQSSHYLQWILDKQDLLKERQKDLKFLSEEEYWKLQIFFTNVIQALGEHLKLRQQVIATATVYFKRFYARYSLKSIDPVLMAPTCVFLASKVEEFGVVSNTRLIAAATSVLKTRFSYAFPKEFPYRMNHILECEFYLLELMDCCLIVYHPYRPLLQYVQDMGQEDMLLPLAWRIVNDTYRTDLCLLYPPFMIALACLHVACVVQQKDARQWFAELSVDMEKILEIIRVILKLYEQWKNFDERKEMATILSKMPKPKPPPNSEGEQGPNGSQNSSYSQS
T8 sequence (P49336 whole entry): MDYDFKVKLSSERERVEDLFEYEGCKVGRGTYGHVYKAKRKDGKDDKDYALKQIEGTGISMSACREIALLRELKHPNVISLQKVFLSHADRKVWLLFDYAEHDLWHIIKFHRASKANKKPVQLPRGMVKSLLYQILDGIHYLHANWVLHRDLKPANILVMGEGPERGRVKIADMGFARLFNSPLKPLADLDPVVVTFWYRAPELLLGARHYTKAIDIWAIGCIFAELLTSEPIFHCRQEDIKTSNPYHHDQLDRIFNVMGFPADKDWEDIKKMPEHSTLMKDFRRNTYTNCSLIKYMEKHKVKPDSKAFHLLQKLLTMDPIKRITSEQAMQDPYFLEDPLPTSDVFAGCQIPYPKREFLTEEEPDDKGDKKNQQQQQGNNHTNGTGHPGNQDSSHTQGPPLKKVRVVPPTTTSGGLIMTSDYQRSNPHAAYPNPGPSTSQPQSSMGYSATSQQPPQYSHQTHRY
T8 sequence (P24863 whole entry partner): as the sequence (P24863 whole entry partner) above
T1 sequence (P06493 whole entry): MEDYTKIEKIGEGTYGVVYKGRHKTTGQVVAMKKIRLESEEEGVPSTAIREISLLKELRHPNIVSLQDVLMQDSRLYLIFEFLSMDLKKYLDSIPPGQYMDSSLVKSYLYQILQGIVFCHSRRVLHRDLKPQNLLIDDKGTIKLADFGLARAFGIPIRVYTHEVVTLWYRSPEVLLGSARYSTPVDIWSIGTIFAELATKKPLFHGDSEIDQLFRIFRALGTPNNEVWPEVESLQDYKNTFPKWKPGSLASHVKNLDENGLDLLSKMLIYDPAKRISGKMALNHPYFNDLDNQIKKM
T1 sequence (P14635 whole entry partner): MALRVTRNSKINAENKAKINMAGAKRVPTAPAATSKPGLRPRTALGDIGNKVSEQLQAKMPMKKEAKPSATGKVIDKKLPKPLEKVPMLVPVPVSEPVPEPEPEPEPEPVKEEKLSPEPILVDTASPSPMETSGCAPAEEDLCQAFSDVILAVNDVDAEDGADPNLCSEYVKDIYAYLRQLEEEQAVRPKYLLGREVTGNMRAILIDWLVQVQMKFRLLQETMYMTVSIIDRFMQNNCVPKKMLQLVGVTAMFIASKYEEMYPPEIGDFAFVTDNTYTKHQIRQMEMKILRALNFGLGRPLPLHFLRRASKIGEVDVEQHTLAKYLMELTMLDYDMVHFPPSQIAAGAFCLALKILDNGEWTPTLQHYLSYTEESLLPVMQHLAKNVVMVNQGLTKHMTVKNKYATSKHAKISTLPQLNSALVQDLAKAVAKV
T6 sequence (Q00534 whole entry): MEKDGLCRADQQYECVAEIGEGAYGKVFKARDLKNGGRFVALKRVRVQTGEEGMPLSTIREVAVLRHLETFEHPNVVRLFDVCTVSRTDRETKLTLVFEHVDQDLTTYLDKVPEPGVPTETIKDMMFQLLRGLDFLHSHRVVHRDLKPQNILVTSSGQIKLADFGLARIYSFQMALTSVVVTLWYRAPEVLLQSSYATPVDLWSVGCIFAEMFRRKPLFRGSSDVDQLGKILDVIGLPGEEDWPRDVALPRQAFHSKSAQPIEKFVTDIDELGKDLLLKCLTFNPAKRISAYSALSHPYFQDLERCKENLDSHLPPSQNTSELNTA
T6 sequence (P24385 whole entry partner): as the sequence (P24385 whole entry partner) above
T2 sequence (Q00536 whole entry): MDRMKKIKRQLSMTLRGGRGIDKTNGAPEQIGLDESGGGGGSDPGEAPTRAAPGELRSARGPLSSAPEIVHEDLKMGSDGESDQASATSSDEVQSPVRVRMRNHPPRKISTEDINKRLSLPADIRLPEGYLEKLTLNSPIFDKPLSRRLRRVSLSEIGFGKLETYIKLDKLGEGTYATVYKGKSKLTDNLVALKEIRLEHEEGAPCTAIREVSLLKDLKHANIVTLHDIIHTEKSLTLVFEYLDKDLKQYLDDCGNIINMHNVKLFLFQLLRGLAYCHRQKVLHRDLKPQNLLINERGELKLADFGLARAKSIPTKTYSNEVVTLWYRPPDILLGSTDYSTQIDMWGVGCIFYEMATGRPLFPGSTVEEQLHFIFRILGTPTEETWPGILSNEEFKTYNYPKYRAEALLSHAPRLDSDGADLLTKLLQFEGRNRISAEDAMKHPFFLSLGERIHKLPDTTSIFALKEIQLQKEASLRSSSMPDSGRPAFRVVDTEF
T2 sequence (Q8ND76 whole entry partner): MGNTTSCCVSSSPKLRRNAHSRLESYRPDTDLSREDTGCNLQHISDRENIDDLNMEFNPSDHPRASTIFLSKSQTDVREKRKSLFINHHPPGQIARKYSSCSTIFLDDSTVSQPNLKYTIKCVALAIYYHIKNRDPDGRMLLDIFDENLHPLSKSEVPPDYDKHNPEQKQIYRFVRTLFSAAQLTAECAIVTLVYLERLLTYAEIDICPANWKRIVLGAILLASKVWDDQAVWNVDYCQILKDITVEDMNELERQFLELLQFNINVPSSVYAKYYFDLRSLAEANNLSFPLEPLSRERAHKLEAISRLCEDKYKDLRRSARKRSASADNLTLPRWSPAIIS
T7 sequence (P50613 whole entry): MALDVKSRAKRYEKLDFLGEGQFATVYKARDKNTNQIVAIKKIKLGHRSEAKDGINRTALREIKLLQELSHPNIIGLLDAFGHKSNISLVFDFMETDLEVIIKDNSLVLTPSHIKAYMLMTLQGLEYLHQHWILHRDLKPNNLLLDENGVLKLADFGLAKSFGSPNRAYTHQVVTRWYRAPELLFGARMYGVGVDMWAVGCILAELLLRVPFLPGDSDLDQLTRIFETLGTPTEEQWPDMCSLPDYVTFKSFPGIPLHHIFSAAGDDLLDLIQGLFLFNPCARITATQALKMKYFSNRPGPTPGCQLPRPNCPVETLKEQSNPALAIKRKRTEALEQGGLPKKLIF
T7 sequence (P51946 whole entry partner): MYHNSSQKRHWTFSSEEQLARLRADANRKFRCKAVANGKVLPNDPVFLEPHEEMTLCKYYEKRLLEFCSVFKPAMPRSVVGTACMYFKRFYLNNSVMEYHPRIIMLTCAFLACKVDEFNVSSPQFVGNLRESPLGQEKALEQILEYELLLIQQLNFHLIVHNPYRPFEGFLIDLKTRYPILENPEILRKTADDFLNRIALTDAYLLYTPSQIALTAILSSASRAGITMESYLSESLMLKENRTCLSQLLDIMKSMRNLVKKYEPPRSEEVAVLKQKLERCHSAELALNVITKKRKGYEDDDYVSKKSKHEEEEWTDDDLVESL
T7 sequence (P51948 whole entry partner): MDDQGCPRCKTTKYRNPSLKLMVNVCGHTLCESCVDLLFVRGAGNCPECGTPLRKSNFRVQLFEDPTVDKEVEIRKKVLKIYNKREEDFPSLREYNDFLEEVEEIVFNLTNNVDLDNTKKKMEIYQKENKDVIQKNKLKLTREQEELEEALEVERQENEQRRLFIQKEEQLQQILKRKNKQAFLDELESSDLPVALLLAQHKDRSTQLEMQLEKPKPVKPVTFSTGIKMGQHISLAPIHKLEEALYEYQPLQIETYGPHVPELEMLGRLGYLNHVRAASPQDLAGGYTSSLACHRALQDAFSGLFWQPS

Cc1cc(NC2CCN(C(=O)O[C@H]3CCN(C(=O)/C=C/CN(C)C)C3)CC2)n2ncc(C(C)C)c2n1 [Example 1, [(3S)-1-[(E)-4-(dimethylamino)but-2-enoyl]pyrrolidin-3-yl] 4-[(3-isopropyl-5-methyl-pyrazolo[1,5-a]pyrimidin-7-yl)amino]piperidine-1-carboxylate]
IC50 (CDK1/CycB1): ≥ 20 µM | IC50 (CDK16/CycY): 9.07 µM | IC50 (CDK19/CycC): 7.41 µM | IC50 (CDK2/CycE1): ≥ 20 µM | IC50 (CDK4/CycD1): 2.83 µM | IC50 (CDK6/CycD1): 8.08 µM | IC50 (CDK7/CycH/MAT1): 0.0928 µM | IC50 (CDK8/CycC): 10.9 µM | IC50 (CDK9/CycT1): 6.32 µM | IC50 (CDK12/CycK): 14.8 µM | IC50 (CDK13/CycK): ≥ 20 µM
